These results are taken from patent publication US7135466B2 (Kirin Beer Kabushiki Kaisha, priority 1999, dated 2006).

Like-named read-outs stand apart in the source and are kept apart here.

Assay [1] has as its target T1, c-kit (Homo sapiens, UniProt P10721).
T1 construct: MO7e (human megakaryocytic leukemia cell line) which had been arrested for 20 hr; endogenous in cells; host or cells: MO7e human megakaryocytic leukemia cell line
The assay can be described thus: Inhibitory activity against c-kit autophosphorylation (MO7e cells, h-SCF). Format: cell-based. As to conditions: for IC50: MO7e cells, read-out: c-kit IC50. The gist of the method:
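First, human megakaryocytic leukemia MO7e cells arrested 20 hr receive compound for one hour. Second, SCF stimulation (50 ng/ml) runs 5 min, after which cells are solubilized. Third, tyrosine-phosphorylated c-kit in the lysate is quantified by sandwich ELISA with absorbance at 450 nm.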

Assay [2] has as its target T2, PDGF-Ra (Homo sapiens, UniProt P16234).
T2 construct: host or cells: G-292 human osteosarcoma cells
The assay can be described thus: Inhibitory activity against PDGF-Ra phosphorylation by PDGF-AA stimulation using G292. The class given is cell-based. As to conditions: for IC50: > means inhibition at indicated concentration not more than 50%, < and << not less than 50%, read-out: PDGF (E) IC50. Summed up:
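Phosphorylated PDGF-Ra was measured colorimetrically (450 nm) after tyrosine-phosphorylated proteins from G-292 lysates were bound to PY-20-coated wells and detected with anti-PDGF-Ra antibody. Compound preincubation lasted 1 hr, followed by 50 ng/ml PDGF-AA for 5 min.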

T1 sequence (P10721 26-976): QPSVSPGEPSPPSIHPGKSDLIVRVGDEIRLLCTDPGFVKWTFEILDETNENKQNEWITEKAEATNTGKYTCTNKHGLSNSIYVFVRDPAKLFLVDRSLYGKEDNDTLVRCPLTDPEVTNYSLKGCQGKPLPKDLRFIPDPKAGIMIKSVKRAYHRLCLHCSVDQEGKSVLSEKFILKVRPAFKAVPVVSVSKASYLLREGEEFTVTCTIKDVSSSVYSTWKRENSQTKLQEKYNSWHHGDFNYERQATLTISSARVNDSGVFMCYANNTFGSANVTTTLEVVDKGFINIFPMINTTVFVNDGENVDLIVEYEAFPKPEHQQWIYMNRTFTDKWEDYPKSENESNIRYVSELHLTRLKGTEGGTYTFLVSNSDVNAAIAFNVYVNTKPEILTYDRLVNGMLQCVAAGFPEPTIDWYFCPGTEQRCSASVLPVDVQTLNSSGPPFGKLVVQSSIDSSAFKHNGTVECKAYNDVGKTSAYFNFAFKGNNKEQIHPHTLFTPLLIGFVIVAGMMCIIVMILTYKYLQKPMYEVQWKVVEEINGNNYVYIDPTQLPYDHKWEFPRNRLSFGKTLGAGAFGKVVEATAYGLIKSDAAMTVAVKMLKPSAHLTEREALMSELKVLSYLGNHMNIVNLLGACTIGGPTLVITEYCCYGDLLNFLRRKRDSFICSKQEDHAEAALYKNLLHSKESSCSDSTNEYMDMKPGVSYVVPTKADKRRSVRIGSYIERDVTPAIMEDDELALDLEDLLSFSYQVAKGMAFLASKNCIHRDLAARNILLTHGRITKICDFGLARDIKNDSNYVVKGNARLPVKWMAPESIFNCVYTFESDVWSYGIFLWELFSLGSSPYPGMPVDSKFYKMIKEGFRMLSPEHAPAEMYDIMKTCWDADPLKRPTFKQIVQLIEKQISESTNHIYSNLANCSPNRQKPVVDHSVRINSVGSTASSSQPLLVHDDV
T2 sequence (P16234 24-1089): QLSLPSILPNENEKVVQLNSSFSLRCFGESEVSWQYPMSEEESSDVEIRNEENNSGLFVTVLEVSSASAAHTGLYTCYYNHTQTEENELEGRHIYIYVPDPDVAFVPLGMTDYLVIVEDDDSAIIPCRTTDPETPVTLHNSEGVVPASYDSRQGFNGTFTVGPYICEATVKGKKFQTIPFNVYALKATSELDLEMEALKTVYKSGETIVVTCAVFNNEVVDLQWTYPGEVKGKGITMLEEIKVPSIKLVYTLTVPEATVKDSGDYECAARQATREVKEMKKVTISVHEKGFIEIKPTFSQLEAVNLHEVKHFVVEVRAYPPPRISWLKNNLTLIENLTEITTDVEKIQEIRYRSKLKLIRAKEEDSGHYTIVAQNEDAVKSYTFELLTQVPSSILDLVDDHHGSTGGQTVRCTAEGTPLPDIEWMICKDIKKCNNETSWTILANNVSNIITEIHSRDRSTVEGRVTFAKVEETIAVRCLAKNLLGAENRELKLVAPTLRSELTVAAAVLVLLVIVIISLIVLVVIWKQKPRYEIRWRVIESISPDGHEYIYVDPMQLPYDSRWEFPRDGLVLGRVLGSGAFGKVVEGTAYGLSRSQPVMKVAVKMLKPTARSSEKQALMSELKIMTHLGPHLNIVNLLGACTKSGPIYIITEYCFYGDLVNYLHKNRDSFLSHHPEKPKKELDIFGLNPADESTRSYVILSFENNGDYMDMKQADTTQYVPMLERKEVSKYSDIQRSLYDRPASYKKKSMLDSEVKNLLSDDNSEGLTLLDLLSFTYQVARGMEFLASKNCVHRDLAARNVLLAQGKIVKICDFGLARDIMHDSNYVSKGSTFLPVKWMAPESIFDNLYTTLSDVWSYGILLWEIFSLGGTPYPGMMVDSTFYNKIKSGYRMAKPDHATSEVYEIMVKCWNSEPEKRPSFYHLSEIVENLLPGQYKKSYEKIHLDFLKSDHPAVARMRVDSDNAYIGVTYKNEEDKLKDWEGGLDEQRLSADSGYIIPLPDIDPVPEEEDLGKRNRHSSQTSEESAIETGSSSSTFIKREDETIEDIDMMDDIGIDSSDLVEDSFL

As to “1-(3-Chlorophenyl)ethyl N-{4-((6,7-dimethoxy-4-quinazolinyl)oxy)phenyl}carbamate [Example 3]”, the IC50 in assay [1] (h-SCF 50 ng/ml) was 173 nM; in assay [2] (Pharmacological Test Example 1), under 10 nM.
As to “3-Morpholinopropyl N-{4-[(6,7-dimethoxy-4-quinolyl)oxy]-2,5-dimethylphenyl}carbamate [Example 423]”, the IC50 in assay [1] (50 ng/ml h-SCF) is 102 nM; in assay [2], under 10 nM.
With “3-[(4-Methylphenyl)sulfanyl]ethyl N-{4-[(6,7-dimethoxy-4-quinolyl)oxy]-2,5-dimethylphenyl}carbamate [Example 139]”, the IC50 turned out to be 80 nM in assay [1] (h-SCF 50 ng/ml) and 57 nM in assay [2] (Pharmacological Test Example 1).
In the same order, the values of “4-(Dimethylamino)butyl N-{4-[(6,7-dimethoxy-4-quinazolinyl)oxy]phenyl}carbamate [Example 194]” are 715 nM and 91 nM.
In the same order, the values of `COc1cc2ncnc(Oc3ccc(NC(=O)OCc4ccc(C)cc4)cc3)c2cc1OC` [Example 1, 4-Methylbenzyl N-{4-[(6,7-dimethoxy-4-quinazolinyl)oxy]phenyl}carbamate] are 52 nM and under 10 nM.
In the same order, the values of `COc1cc2ncnc(Oc3ccc(NC(=O)OCc4ccc(C)cc4)c(Cl)c3)c2cc1OC` [Example 2, 4-Methylbenzyl N-{2-chloro-4-[(6,7-dimethoxy-4-quinazolinyl)oxy]phenyl}carbamate] are 422 nM and 17 nM.
For `COc1cc2nccc(Oc3ccc(NC(=O)OC(C)c4cccc(Cl)c4)c(C)c3C)c2cc1OC` (stereo not shown) [Example 4, 1-(3-Chlorophenyl)ethyl N-{4-[(6,7-dimethoxy-4-quinolyl)oxy]-2,3-dimethylphenyl}carbamate], the IC50 in assay [1] (h-SCF 50 ng/ml) is 133 nM; in assay [2] (Pharmacological Test Example 1) it was under 10 nM.
In the same order, the values of `COc1cc2nccc(Oc3cc(C)c(NC(=O)OC(C)c4cccc(Cl)c4)cc3C)c2cc1OC` (stereo not shown) [Example 5, 1-(3-Chlorophenyl)ethyl N-{4-[(6,7-dimethoxy-4-quinolyl)oxy]-2,5-dimethylphenyl}carbamate] are 336 nM and 24 nM.
As to `COc1cc2ncnc(Oc3ccc(NC(=O)OC(C)c4cccc(Cl)c4)cc3)c2cc1OC` (stereo not shown) [Example 6, 1-(3-Chlorophenyl)ethyl N-{4-[(6,7-dimethoxy-4-quinazolinyl)oxy]phenyl}carbamate], the IC50 is 175 nM in assay [1] (h-SCF 50 ng/ml) and under 10 nM in assay [2] (Pharmacological Test Example 1).
In the same order, the values of `COc1cc2ncnc(Oc3ccc(NC(=O)OC(C)c4cccc(Cl)c4)c(Cl)c3)c2cc1OC` (stereo not shown) [Example 7] are 616 nM and 12 nM.
In the same order, the values of `COc1cc2nccc(Oc3ccc(NC(=O)OCc4ccc(F)cc4)cc3)c2cc1OC` [Example 8, 4-Fluorobenzyl N-{4-[(6,7-dimethoxy-4-quinolyl)oxy]phenyl}carbamate] are 62 nM and under 10 nM.
Turning to `COc1cc2nccc(Oc3ccc(NC(=O)OCc4ccc(F)cc4)c(C)c3C)c2cc1OC` [Example 9, 4-Fluorobenzyl N-{4-[(6,7-dimethoxy-4-quinolyl)oxy]-2,3-dimethylphenyl}carbamate], the IC50 in assay [1] (h-SCF 50 ng/ml) was 45 nM; in assay [2] (Pharmacological Test Example 1) it was under 10 nM.
In the same order, the values of `COc1cc2nccc(Oc3cc(C)c(NC(=O)OCc4ccc(F)cc4)cc3C)c2cc1OC` [Example 10, 4-Fluorobenzyl N-{4-[(6,7-dimethoxy-4-quinolyl)oxy]-2,5-dimethylphenyl}carbamate] are 106 nM and 11 nM.
In the same order, the values of `COc1cc2ncnc(Oc3ccc(NC(=O)OCc4ccc(F)cc4)cc3)c2cc1OC` [Example 11, 4-Fluorobenzyl N-{4-[(6,7-dimethoxy-4-quinazolinyl)oxy]phenyl}carbamate] are 36 nM and under 10 nM.
As for `COc1cc2ncnc(Oc3ccc(NC(=O)OCc4ccc(F)cc4)c(Cl)c3)c2cc1OC` [Example 12, 4-Fuorobenzyl N-{2-chloro-4-[(6,7-dimethoxy-4-quinazolinyl)oxy]phenyl}carbamate], the IC50 in assay [1] (h-SCF 50 ng/ml) was found to be 389 nM; in assay [2] (Pharmacological Test Example 1), 11 nM.
Consider `COc1cc2nccc(Oc3ccc(NC(=O)OC(C)c4ccccc4Cl)cc3)c2cc1OC` (stereo not shown) [Example 13, 1-(2-Chlorophenyl)ethyl N-{4-[(6,7-dimethoxy-4-quinolyl)oxy]phenyl}carbamate], for which the results for the IC50 in assay [1] (h-SCF 50 ng/ml) and in assay [2] (Pharmacological Test Example 1) were 135 nM and under 10 nM, respectively.
In the same order, the values of `COc1cc2nccc(Oc3ccc(NC(=O)OC(C)c4ccccc4Cl)c(C)c3C)c2cc1OC` (stereo not shown) [Example 14, 1-(2-Chlorophenyl)ethyl N-{4-[(6,7-dimethoxy-4-quinolyl)oxy]-2,3-dimethylphenyl}carbamate] are 209 nM and 12 nM.
In the case of `COc1cc2ncnc(Oc3ccc(NC(=O)OC(C)c4ccccc4Cl)cc3)c2cc1OC` (stereo not shown) [Example 15, 1-(2-Chlorophenyl)ethyl N-{4-[(6,7-dimethoxy-4-quinazolinyl)oxy]phenyl}carbamate], the inhibition at 1 µM in assay [1] (Mo7e, figure in parentheses in −( ), at 1000 nM) was 48%. Moreover, in assay [2] (Pharmacological Test Example 1), the IC50 was 21 nM.
For `COc1cc2ncnc(Oc3ccc(NC(=O)OC(C)c4ccccc4Cl)c(Cl)c3)c2cc1OC` (stereo not shown) [Example 16, 1-(2-Chlorophenyl)ethyl N-{2-chloro-4-[(6,7-dimethoxy-4-quinazolinyl)oxy]phenyl}carbamate], the IC50 in assay [1] (h-SCF 50 ng/ml) is 495 nM; in assay [2] (Pharmacological Test Example 1) it was under 10 nM.
In the same order, the values of `COc1cc2nccc(Oc3ccc(NC(=O)OCCCOc4ccccc4Cl)c(C)c3C)c2cc1OC` [Example 17, 3-(2-Chlorophenoxy)propyl N-{4-[(6,7-dimethoxy-4-quinolyl)oxy]-2,3-dimethylphenyl}carbamate] are 57 nM and under 10 nM.
In the case of `COc1ccc(C(=O)NC(=S)Nc2ccc(Oc3ccnc4cc(OC)c(OC)cc34)cc2Cl)cc1` [Example 1173, N-{2-Chloro-4-[(6,7-dimethoxy-4-quinolyl)oxy]phenyl}-N′-(4-methoxybenzoyl)thiourea], the IC50 in assay [2] is over 100 nM.
With `COc1cc2nccc(Oc3ccc(NC(=S)NC(=O)c4ccc(Cl)cc4)c(Cl)c3)c2cc1OC` [Example 1174, N-(4-Chlorobenzoyl)-N′-{2-chloro-4-[(6,7-dimethoxy-4-quinolyl)oxy]phenyl}thiourea], the half-inhibitory concentration (IC50) in assay [2] was over 100 nM.
Consider `COc1ccc(C(=O)NC(=S)Nc2ccc(Oc3ncnc4cc(OC)c(OC)cc34)cc2)c(OC)c1` [Example 1175, N-(2,4-Dimethoxybenzoyl)-N′-{4-[(6,7-dimethoxy-4-quinazolinyl)oxy]phenyl}thiourea], for which the IC50 in assay [2] was determined as 37 nM.
The same measure, in the same setting: to `COc1ccc(C(=O)NC(=S)Nc2ccc(Oc3ccnc4cc(OC)c(OC)cc34)cc2Cl)c(OC)c1` [Example 1176, N-{2-Chloro-4-[(6,7-dimethoxy-4-quinolyl)oxy]phenyl}-N′-(2,4-dimethoxybenzoyl)thiourea] belongs over 100 nM; to `CCOC(=O)CCCC(=O)NC(=S)Nc1ccc(Oc2ncnc3cc(OC)c(OC)cc23)cc1` [Example 1177, Ethyl 5-[({4-[(6,7-dimethoxy-4-quinazolinyl)oxy]anilino}carbothioyl)amino]-5-oxopentanoate], 17 nM; to `CCOC(=O)CCC(=O)NC(=S)Nc1ccc(Oc2ncnc3cc(OC)c(OC)cc23)cc1` [Example 1178, Ethyl 4-[({4-[(6,7-dimethoxy-4-quinazolinyl)oxy]anilino}carbothioyl)amino]-4-oxobutanoate], 78 nM.
Still for that read-out and setting: the result for `COc1cc2nccc(Oc3ccc(NC(=S)NC(=O)CCc4cccc(C)c4)cc3Cl)c2cc1OC` [Example 1184, N-{3-Chloro-4-[(6,7-dimethoxy-4quinolyl)oxy]phenyl}-N′-[3-(3-methylphenyl)propanoyl]thiourea] reads 55 nM; that for `COc1cc2nccc(Oc3ccc(NC(=S)NC(=O)C(C)(C)C)cc3Cl)c2cc1OC` [Example 1187, N-{3-Chloro-4-[(6,7-dimethoxy-4-quinolyl)oxy]phenyl}-N′-(2,2-dimethylpropanoyl)thiourea], 24 nM.
Still for that read-out and setting: the result for `COc1cc2ncnc(Oc3ccc(NC(=S)NC(=O)C(C)(C)C)cc3)c2cc1OC` [Example 1188, N-{4-[(6,7-Dimethoxy-4-quinazolinyl)oxy]phenyl}-N′-(2,2-dimethylpropanoyl)thiourea] reads 76 nM; that for `COc1cc2nccc(Oc3ccc(NC(=S)NC(=O)C4(c5ccccc5)CC4)cc3Cl)c2cc1OC` [Example 1194, N-{3-Chloro-4-[(6,7-dimethoxy-4-quinolyl)oxy]phenyl}-N′-[(1-phenylcyclopropyl)carbonyl]thiourea], 56 nM.
For the molecule `COc1cc2ncnc(Oc3ccc(NC(=S)NC(=O)CCCl)cc3)c2cc1OC` [Example 1199, N-(3-Chloropropanoyl)-N′-{4-[(6,7-dimethoxy-4-quinazolinyl)oxy]phenyl}thiourea], the IC50 in assay [2] is 42 nM.
On to `COc1ccc(C(=O)NC(=S)Nc2ccc(Oc3ncnc4cc(OC)c(OC)cc34)cc2)cc1OC` [Example 1203, N-(3,4-Dimethoxybenzoyl)-N′-{4-[(6,7-dimethoxy-4-quinazolinyl)oxy]phenyl}thiourea], for which, in assay [2], the IC50 is under 10 nM.
Turning to “N-{4-[(6,7-Dimethoxy-4-quinazolinyl)oxy]phenyl}-N-ethyl-N′-(4-phenylbutanoyl)thiourea [Example 1140]”, in assay [2], the IC50 was over 100 nM. For the same molecule, the “PDGF (E) inhibition (%) at 100 nM” value in assay [2] (figure in parentheses in >100( ), at 100 nM) is reported as 22%.
Turning to “N-{4-[(6,7-Dimethoxy-4-quinolyl)oxy]-2,5-dimethylphenyl}-N′-(N-cyclohexylamino)thiourea [Example 523]”, the IC50 in assay [2] was over 100 nM.
